Literature values in patent publication US8642081B2, “Chewable, suckable and swallowable tablet containing a calcium-containing compound as an active substance” (Takeda Nycomed AS, priority 2004, dated 2014).

System: treated patients
Settings: annual injections of 150.000-300.000 IU

vitamin D
overall fracture rate: significant reduction | rate of hip fracture: not
